Measurements published in US8268789B2, “PAR-2 antagonists” (Kowa Company, Ltd., priority 2004, dated 2012).
Read-outs that look alike come from different tables or passages of the source.

Molecular target: T1, PAR-2 (Homo sapiens, UniProt P55085)
T1 construct: intracellular Ca^2+ level change by PAR-2 agonist in human keratinocytes expressing PAR-2; host or cells: primary human keratinocytes, passage 3 to 5
T1 sequence (P55085 26-397): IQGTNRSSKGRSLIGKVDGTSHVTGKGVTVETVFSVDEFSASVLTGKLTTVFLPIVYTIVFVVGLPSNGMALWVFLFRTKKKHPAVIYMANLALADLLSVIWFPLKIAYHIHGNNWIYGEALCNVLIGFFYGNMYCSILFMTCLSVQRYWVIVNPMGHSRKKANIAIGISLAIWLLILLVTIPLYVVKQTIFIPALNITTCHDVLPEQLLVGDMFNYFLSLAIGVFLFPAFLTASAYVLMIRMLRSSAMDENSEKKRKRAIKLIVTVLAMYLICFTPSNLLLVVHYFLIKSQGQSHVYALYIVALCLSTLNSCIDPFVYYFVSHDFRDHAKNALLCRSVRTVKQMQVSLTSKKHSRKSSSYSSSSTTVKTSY
Assay: Assay of intracellular Ca2+ level in human keratinocytes stimulated with PAR-2 agonist peptide
Assay type: cell-based
Settings: for inhibition at 10 µg/mL: read-out: Inhibition Rate (%) (Means ± Standard Error, n = 3)
Procedure: The keratinocytes were subjected to passage culture with trypsin/EDTA, and the cells whose passage number was 3 to 5 were used in the experiment.
Flex Station Calcium assay kit 2, which is a fluorescent reagent kit for calcium assay, was purchased from Molecular Devices and used in reagent preparation according to an accompanying protocol. Probenecid, Calcium ionophore (A23187) was purchased from Sigma. The human keratinocytes were seeded at a density of 40,000 cells/well to a 96-well black-well clear-bottom plate (Corning) and cultured for 24 hours until the cells became subconfluent. After washing once with KBM, 80 μl KBM was added to each well. Subsequently, a fluorescent dye solution containing an equal volume of Probenecid at a final concentration of 2 mM (HBSS solution, pH 7.4) was added to each well and incubated at 37° C. for 1 hour. Thereafter, the plate was left for 15 minutes at room temperature and assayed at room temperature (25° C.). The test chemical and the stimulants were prepared by diluting KBM having 10-fold concentration of a final concentration respectively which were then added in a volume of 20 μL respectively for assay. Measurement was carried out with a fluorescent plate reader FlexStation (Molecular Devices) compatible with a 96-well plate equipped with an injector. The measurement through the bottom was carried out for 180 seconds at 2-second intervals at an excitation wavelength of 475 nm and at a measurement wavelength of 525 nm. The chemical was added 17 seconds after the measurement was initiated.

[1] = compound final concentration 10 μg/mL, PAR-2 agonist SLIGKV 10 μM, cultured human keratinocytes, (1-AUCantagonist/AUCcontrol)×100 of time-fluorescence intensity curve

Compound | inhibition at 10 µg/mL [1] | PAR-2 inhibitory action (inhibition of the agonist-induced increase in intracellular Ca2+ level), in words (compound final concentration 10 μg/mL, SLIGKV 10 μM, human keratinocytes, FIG. 1) | inhibition at 10 µg/mL
NCCCC[C@H](NC(=O)CNC(=O)Nc1ccc2c(c1)c(CN1CCCC1)cn2Cc1c(Cl)cccc1Cl)C(=O)N[C@@H](Cc1ccccc1)C(=O)NCc1ccccc1 [Example 21, [[N-[1-(2,6-dichlorophenyl)methyl]-3-(1-pyrrolidinylmethyl)-1H-indol-5-yl]aminocarbonyl]-glycine-L-lysine-L-phenylalanine-N-benzylamide] | 14.2 ± 10% | – | –
CN1CCN(Cc2cn(Cc3c(Cl)cccc3Cl)c3ccc(NC(=O)NCC(=O)N[C@@H](CCCCN)C(=O)N[C@@H](Cc4ccccc4)C(=O)NC(c4ccccc4)c4ccccc4)cc23)CC1 [Example 12, [[N-[1-(2,6-dichlorophenyl)methyl]-3-[1-(4-methylpiperazinyl)methyl]-1H-indol-5-yl]aminocarbonyl]-glycine-L-lysine-L-phenylalanine-N-benzhydrylamide] | 52.2 ± 1.8% | – | –
NCC[C@H](NC(=O)CNC(=O)Nc1ccc2c(c1)c(CN1CCCC1)cn2Cc1c(Cl)cccc1Cl)C(=O)N[C@@H](Cc1ccccc1)C(=O)NC(c1ccccc1)c1ccccc1 [Example 11, [[N-[1-(2,6-dichlorophenyl)methyl]-3-(1-pyrrolidinylmethyl)-1H-indol-5-yl]aminocarbonyl]-glycine-L-α,γ-diaminobutyrate-L-phenylalanine-N-benzhydrylamide] | 32 ± 2.3% | – | –
CC(C)n1ccc2cc(NC(=O)NCC(=O)N[C@@H](CCN)C(=O)N[C@@H](Cc3ccccc3)C(=O)NCc3ccccc3)ccc21 [Example 24, [[N-isopropyl-1H-indol-5-yl]aminocarbonyl]-glycine-L-α,γ-diaminobutyrate-L-phenylalanine-N-benzylamide] | 15.1 ± 10.5% | – | –
NCCCC[C@H](NC(=O)CNC(=O)Nc1ccc2c(c1)c(CN1CCCC1)cn2Cc1c(Cl)cccc1Cl)C(=O)N[C@@H](Cc1ccccc1)C(=O)NC(c1ccccc1)c1ccccc1 [Example 10, [[N-[1-(2,6-dichlorophenyl)methyl]-3-(1-pyrrolidinylmethyl)-1H-indol-5-yl]aminocarbonyl]-glycine-L-lysine-L-phenylalanine-N-benzhydrylamide] | – | inhibition was recognized | 58.4 ± 13%
NCC[C@H](NC(=O)CNC(=O)Nc1ccc2c(c1)c(CN1CCCC1)cn2Cc1c(Cl)cccc1Cl)C(=O)N[C@@H](Cc1ccccc1)C(=O)NCc1ccccc1 [Example 20, [[N-[1-(2,6-dichlorophenyl)methyl]-3-(1-pyrrolidinylmethyl)-1H-indol-5-yl]aminocarbonyl]-glycine-L-α,γ-diaminobutyrate-L-phenylalanine-N-benzylamide] | 33.6 ± 16.8% | – | –
